This note sets out measurements from ChEMBL document CHEMBL5032529, “Synthesis and evaluation of tetrahydroisoquinoline derivatives against Trypanosoma brucei rhodesiense” (Eur J Med Chem, 2021).

Structures are written as SMILES.

The test system of data set [1] is Trypanosoma brucei rhodesiense. As to the kind of experiment: Antitrypanosomal activity against Trypanosoma brucei rhodesiense STIB900 assessed as parasite growth inhibition measured after 72 hrs by alamar blue dye based spectrofluorimetric analysis. Type of data set: functional, organism-based. The settings on record: STIB900, 72 h. In general terms: Resazurin is reduced to fluorescent resorufin, in cell work by metabolically active cells.

The subject of another data set is Vero. As to the kind of experiment: Cytotoxicity against African green monkey Vero cells assessed as reduction in cell viability measured after 72 hrs by SRB assay. Type of data set: cell-based. The settings on record: Chlorocebus sabaeus. A general note: In SRB staining, fixed cells bind dye roughly in proportion to their protein.
Data set [2] can be described thus: Selectivity index, ratio of IC50 for cytotoxicity against African green monkey Vero cells to IC50 for antitrypanosomal activity against Trypanosoma brucei rhodesiense STI B900. The settings on record: read-out: Ratio IC50. Type of data set: toxicity, cell-based.

As a reminder, the IC50 is the concentration needed to halve the response being measured. Turning to `CC1(C)N=C(N)N=C(N)N1OCCCOc1cc(Cl)c(Cl)cc1Cl`, the IC50 in data set [1] is 0.25 µM; in the data set with Vero, over 10 µM. Moreover, in data set [2], the selectivity ratio is over 40.
For `CN1Cc2ccc(OCc3ccccc3)cc2[C@@H](OCc2ccccc2)C1`, the IC50 in data set [1] came to 2.8 µM; in the data set on Vero, 23.5 µM. The selectivity ratio in data set [2] came to 8.4.
The corresponding values for `CN1Cc2ccc(OCCCn3ccnc3[N+](=O)[O-])cc2[C@@H](O)C1` are 21.7 µM, over 50 µM and over 2.3.
On the same counts, the results for `CN1Cc2ccc(OCc3ccc(Oc4ccc(F)cc4)cc3)cc2[C@@H](O)C1` are 2.7 µM, 5.6 µM and 2.1.
On the same counts, the results for `CN1CCc2cc(OCc3ccc(-c4ccccc4)cc3)ccc2C1` are 2.3 µM, 16.5 µM and 7.2.
`CN1CCc2cc(OCc3ccccc3)ccc2C1`: the IC50 was 4.4 µM in data set [1] and over 100 µM in the data set on Vero. Also, the selectivity ratio in data set [2] is over 22.7.
On to `CN1CCc2cc(Oc3ccccc3)ccc2C1`, for which the IC50 is 19.8 µM in data set [1] and over 100 µM in the data set with Vero. Also, in data set [2], the selectivity ratio is over 5.7.
The corresponding values for `OC1CN(Cc2ccccc2)Cc2ccc(OCc3ccc(-c4ccccc4)cc3)cc21` (stereo not given) are 2.7 µM, 14.8 µM and 5.5.
For the compound `CN1Cc2ccc(O)cc2[C@@H](OCc2ccc(-c3ccccc3)cc2)C1`, the IC50 in data set [1] was 6.4 µM; in the data set on Vero it was over 50 µM. In addition, the selectivity ratio in data set [2] is over 7.8.
On the same counts, the results for `CN1Cc2ccc(OCc3ccc(Oc4ccccc4)cc3)cc2[C@@H](O)C1` are 2.7 µM, 3.4 µM and 1.3.
On the same counts, the results for `CN1Cc2ccc(O)cc2[C@@H](OCCC2CCCCC2)C1` are 19.1 µM, over 50 µM and over 2.6.
On the same counts, the results for `CN1Cc2ccc(OCc3ccc(Br)cc3)cc2[C@@H](O)C1` are 2.5 µM, 37 µM and 14.8.
On to `CN1Cc2ccc(OCCC3CCCCC3)cc2[C@@H](O)C1`, for which the IC50 in data set [1] is 2.5 µM; in the data set with Vero it was over 50 µM. In addition, in data set [2], the selectivity ratio was over 20.
The corresponding values for `COc1cccc(-c2cccc(COc3ccc4c(c3)[C@@H](O)CN(C)C4)c2)c1` are 2.9 µM, 24.3 µM and 8.4.
The corresponding values for `CN1CCc2cc(-c3ccc(-c4ccccc4)cc3)ccc2C1` are 0.27 µM, 15.6 µM and 57.8.
For `OC1CN(Cc2ccccc2)Cc2ccc(OCc3ccccc3)cc21` (stereo not given), the values for the IC50 (in data set [1]; in the data set with Vero) were 8.4 µM and 31.8 µM, respectively. Moreover, the selectivity ratio in data set [2] was found to be 3.8.
On the same counts, the results for `CN1CCc2cc(OCCC3CCCCC3)ccc2C1` are 2.9 µM, 25 µM and 8.6.
Turning to `CN1Cc2ccc(OCc3ccc(-c4ccc5ccccc5c4)cc3)cc2[C@@H](O)C1`, the values for the IC50 (in data set [1]; in the data set with Vero) were 0.24 µM and 0.31 µM, respectively. For the same compound, the selectivity ratio in data set [2] came out at 1.3.
In the case of `CN1Cc2ccc(OCc3cccc(Br)c3)cc2[C@@H](O)C1`, the IC50 in data set [1] was 2.2 µM; with Vero, 60.3 µM. The selectivity ratio in data set [2] worked out at 27.4.
On the same counts, the results for `CN1Cc2ccc(OCCCN3CCOCC3)cc2[C@@H](O)C1` are 27.6 µM, over 50 µM and over 1.8.
On the same counts, the results for `CCCCCCCCCCCCOc1ccc2c(c1)[C@@H](O)CN(C)C2` are 2.4 µM, 18.3 µM and 7.6.
The corresponding values for `OC1CNCc2ccc(OCc3ccccc3)cc21` (stereo not given) are 17.4 µM, over 50 µM and over 2.9.
As to `CN1Cc2ccc(OCc3cccc(-c4ccc(Cl)cc4)c3)cc2[C@@H](O)C1`, the IC50 in data set [1] came out at 2.9 µM; with Vero, 27.3 µM. The selectivity ratio in data set [2] was found to be 9.4.
On the same counts, the results for `CN1Cc2ccc(OCc3ccc(-c4cccc(Cl)c4)cc3)cc2[C@@H](O)C1` are 2.8 µM, 25.5 µM and 9.1.
On the same counts, the results for `CN1CCc2cc(OCCCN3CCOCC3)ccc2C1` are 25.9 µM, over 50 µM and over 1.9.
On the same counts, the results for `CN1Cc2ccc(OC(c3ccccc3)(c3ccccc3)c3ccccc3)cc2[C@@H](O)C1` are 20.8 µM, 87.9 µM and 4.2.
Consider `CN1CCc2cc(-c3ccc4ccccc4c3)ccc2C1`, for which the IC50 in data set [1] amounted to 2.7 µM; with Vero, 24.1 µM. Moreover, the selectivity ratio in data set [2] came out at 8.9.
On the same counts, the results for `COc1cccc(-c2ccc(COc3ccc4c(c3)[C@@H](O)CN(C)C4)cc2)c1` are 2.8 µM, 10.8 µM and 3.9.
On the same counts, the results for `OC1CNCc2ccc(OCc3ccc(-c4ccccc4)cc3)cc21` (stereo not given) are 0.25 µM, 20.8 µM and 83.2.
On the same counts, the results for `Oc1ccc2c(c1)C(O)CN(Cc1ccccc1)C2` (stereo not given) are 70.5 µM, over 100 µM and over 1.4.
Take `CN1Cc2ccc(O[Si](c3ccccc3)(c3ccccc3)C(C)(C)C)cc2[C@@H](O)C1`: the IC50 turned out to be 2.8 µM in data set [1] and 19.1 µM with Vero. The selectivity ratio in data set [2] came to 6.8.
On to `Oc1ccc2c(c1)C(O)CN(Cc1ccc(-c3ccccc3)cc1)C2` (stereo not given), for which the IC50 in data set [1] is 5.4 µM; in the data set with Vero it was over 50 µM. In addition, in data set [2], the selectivity ratio was over 9.3.
For the compound `CN1Cc2ccc(OCc3ccc(-c4ccccc4)cc3)cc2[C@@H](OCc2ccc(-c3ccccc3)cc2)C1`, the IC50 in data set [1] was 2.8 µM; in the data set with Vero it was over 10 µM. In addition, the selectivity ratio in data set [2] was over 3.6.
The corresponding values for `CN1CCc2cc(-c3ccccc3)ccc2C1` are 3 µM, over 50 µM and over 16.7.
On the same counts, the results for `CN1Cc2ccc(OCCOc3ccccc3)cc2[C@@H](O)C1` are 17.9 µM, over 100 µM and over 5.6.
`CN1CCc2cc(Oc3ccc(-c4ccccc4)cc3)ccc2C1`: the IC50 in data set [1] worked out at 2.7 µM; in the data set with Vero it was 22.3 µM. Further, in data set [2], the selectivity ratio came to 8.3.
The corresponding values for `CN1Cc2ccc(OCc3ccc(-c4ccc(Cl)cc4)cc3)cc2[C@@H](O)C1` are 0.28 µM, 21.7 µM and 77.5.
On the same counts, the results for `CN1Cc2ccc(OCCC3CCCCC3)cc2[C@@H](OCCC2CCCCC2)C1` are 2.3 µM, 23.6 µM and 10.3.
The corresponding values for `CN1Cc2ccc(OCc3ccc(-c4ccc(-c5ccccc5)cc4)cc3)cc2[C@@H](O)C1` are 0.28 µM, 0.28 µM and 1.
In the case of `CN1Cc2ccc(OCc3ccc(-c4ccc(F)cc4)cc3)cc2[C@@H](O)C1`, the IC50 in data set [1] stood at 1.4 µM; in the data set on Vero it was 33.8 µM. In data set [2], the selectivity ratio worked out at 24.1.
